Measured values as given in US6635030B1 (B.H.B. LLC, priority 1999, dated 2003).

Experiment: Empiric porcine aortic contrast enhancement, dynamic CT after i.v. contrast injection
Assay type: in vivo, pig
Experimental: In order to test the mathematical solutions, a porcine study was conducted. All animal care and procedures performed were approved by the Institutional Animal Study Committee. […] Each session was separated by at least two days. Two pigs had all their sessions within a week, while the other two pigs had their first two and last sessions delays 4-5 weeks, which results in an increase in their weight to 35-40 kg in their last session. In each session, the pig was anesthetized, intubated, and underwent scanning for three or four sets of images obtained in random order. During scanning, each pig was ventilated with oxygen and low tidal volume to minimize breathing motion artifact. […] Each set of scans were 45-60 minutes apart to minimize the effect of prior contrast administration. All CT scanning was performed with a Somatom Plus-S scanner (Siemens Medical Systems, […].) using a one-second scanning time and a one-second interscan delay. Three types of injection schemes were tested: uniphasic, biphasic, and multiphasic. Biphasic injections were performed by a prior art power injector which was used in routine clinical CT scanning while uniphasic and multiphasic injections were conducted with a power injector which was invented for achieving the required protocols. This power injector was capable of delivering contrast medium in various uniphasic or multiphasic injection algorithms, as is explained in greater detail below. The multiphasic injection rate is determined by an initial injection rate and an exponential decay coefficient, as shown in FIG. 3. […] Most injections were performed with the initial injection rate of 2 mL/s. […] Three differential exponential decay coefficients (0.007, 0.017, 0.026) were tested. […] These were the three smallest discrete increments allowed in the prototype of the inventive power injector. Decay coefficient higher than 0.03 was not used because it was evident that a further increase in the coefficient would deviate further away from uniform vascular enhancements. A uniphasic injection was determined as being equivalent to a zero exponential decay coefficient where the injection rate remains constant at an initial injection rate throughout the injection duration. […] Approximately half of the total contrast volume was injected in each phase of the biphasic injections. […] Attenuation values of the aorta were measured from post-contrast scans (at the same level as the pre-contrast scans) using a circular region of interest (ROI) at the center of the aorta. Contrast enhancement was calculated as the absolute different in attenuation value between the pre- and post-contrast scans. […] Means and standard deviations were also computed. The results are now explained.

[1] = 25 kg pig, 50 mL of 282 mgI/mL contrast medium, uniphasic 2 mL/sec
[2] = four pigs, 50 mL, 2 mL/s initial injection rate, decay constant 0.017
[3] = four pigs, 70 mL, 2 mL/s initial injection rate, decay constant 0.017

time to the peak aortic enhancement (empiric) [1]: 26 s
SMILES: CNC(=O)c1c(I)c(NC(C)=O)c(I)c(C(=O)O)c1I.CNC[C@H](O)[C@@H](O)[C@H](O)[C@H](O)CO [contrast medium, iothalmate meglumine]
magnitude of the peak aortic enhancement (empiric) [1]: 250 HU
increase of duration of enhancement within 90% of the peak (90%DCE), multiphasic vs uniphasic injection, mean [2]: 81%
reduction of peak aortic enhancement (PA), multiphasic vs uniphasic injection, mean [2]: 19%
decrease of peak aortic enhancement (PA), multiphasic vs uniphasic injection [3]: 18%
increase of duration of enhancement within 90% of the peak (90%DCE), multiphasic vs uniphasic injection [3]: 94%
